According to patent US12534465B2, “5H-pyrrolo[3,2-d]pyrimidine-2,4-diamino compounds and antibody conjugates thereof” (SUTRO BIOPHARMA, INC., priority 2019, dated 2026):

Tests used:
human TLR7 = molecular target: T1, human TLR7 (Homo sapiens, UniProt Q9NYK1); experiment: HEK293-humanTLR7 SEAP reporter assay (Example 8); type: cell-based; settings: HEK293-hTLR7 SEAP reporter cells, 24 hrs
T1 construct: host or cells: HEK293
T1 sequence (Q9NYK1 27-1049): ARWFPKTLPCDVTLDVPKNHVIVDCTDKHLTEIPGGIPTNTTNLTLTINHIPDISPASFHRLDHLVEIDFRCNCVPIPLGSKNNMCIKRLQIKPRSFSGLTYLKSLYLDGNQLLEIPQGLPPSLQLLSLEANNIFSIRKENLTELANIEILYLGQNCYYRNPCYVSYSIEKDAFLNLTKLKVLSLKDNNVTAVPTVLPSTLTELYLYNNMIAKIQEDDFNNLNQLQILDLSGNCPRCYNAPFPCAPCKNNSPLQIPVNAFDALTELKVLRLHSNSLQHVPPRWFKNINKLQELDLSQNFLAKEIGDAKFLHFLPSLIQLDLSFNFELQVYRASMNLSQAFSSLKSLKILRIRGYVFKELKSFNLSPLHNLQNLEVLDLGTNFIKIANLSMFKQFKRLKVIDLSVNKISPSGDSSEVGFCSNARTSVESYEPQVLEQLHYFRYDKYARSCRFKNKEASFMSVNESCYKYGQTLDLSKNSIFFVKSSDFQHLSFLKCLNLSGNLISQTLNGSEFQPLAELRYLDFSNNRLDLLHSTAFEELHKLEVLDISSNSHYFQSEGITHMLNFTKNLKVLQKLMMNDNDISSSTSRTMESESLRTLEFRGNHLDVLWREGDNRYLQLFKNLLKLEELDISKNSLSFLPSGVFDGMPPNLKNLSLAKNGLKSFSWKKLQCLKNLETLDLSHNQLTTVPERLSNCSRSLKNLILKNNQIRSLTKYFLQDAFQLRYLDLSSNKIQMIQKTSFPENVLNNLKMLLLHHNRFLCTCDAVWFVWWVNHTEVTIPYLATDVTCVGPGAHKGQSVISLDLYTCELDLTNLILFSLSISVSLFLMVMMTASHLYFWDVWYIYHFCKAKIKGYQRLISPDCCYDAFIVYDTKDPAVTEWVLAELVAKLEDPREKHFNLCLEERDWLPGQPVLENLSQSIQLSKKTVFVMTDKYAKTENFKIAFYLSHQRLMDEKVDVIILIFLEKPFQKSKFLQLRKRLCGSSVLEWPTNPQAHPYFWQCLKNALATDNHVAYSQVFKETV
Protocol: (§1) In this example, the in vitro activity of compounds to activate human TLR7 (or human TLR8 or mouse TLR7) pathway was evaluated on HEK293 reporter cells transfected with human TLR7 (or human TLR8 or mouse TLR7) and an inducible SEAP (secreted embryonic alkaline phosphatase) reporter gene. The SEAP reporter gene is placed under the control of the IFN-β minimal promoter fused to five NF-κB and AP-1-binding sites. Stimulation with a TLR7 agonist activates NF-κB and AP-1 which induces the production of SEAP. Levels of SEAP were determined by HEK-Blue Detection medium.
(§2) The in vitro activity of compounds on TLR7 (human and mouse) and TLR8 (human only) reporter cell lines was assessed as follows. 5-(2-methoxy-4-(piperazin-1-ylmethyl)benzyl)-N4-pentyl-5H-pyrrolo[3,2-d]pyrimidine-2,4-diamine (Compound 1) is a compound used for comparison and has the structure shown below:
(§3) HEK293-humanTLR7 (hTLR7), HEK293-mouseTLR7 (mTLR7) and HEK293-humanTLR8 (hTLR8) reporter cell lines were purchased from Invivogen and cell lines were maintained in the manufacturer's recommended culture medium with required supplemental antibiotics. On the day of assay, the cells were harvested with Accutase and counted by the Vi-CELL Cell Viability Analyzers. Cells were resuspended in HEK blue detection medium and a total of 10,000 cells were seeded in each well of a 384-well flat bottom plate. Serial dilutions of test compounds (1:4 serial dilution starting from 5 μM) were added into treatment wells and assay plates were cultured at 37° C. in a CO2 incubator for 24 hrs. The plates were then read by spectrophotometry at 640 nm. Data was fitted with non-linear regression analysis, using a log(inhibitor) vs. response-variable slope, 3-parameter fit with GraphPad Prism. There result was reported in Table 1 as EC50 (the midpoint of the curve, or concentration at which 50% of the maximum effect was observed).

mouse TLR7 = molecular target: T2, mouse TLR7 (Mus musculus, UniProt P58681); experiment: HEK293-mouseTLR7 SEAP reporter assay (Example 8); type: cell-based; settings: HEK293-mTLR7 SEAP reporter cells, 24 hrs
T2 construct: host or cells: HEK293
T2 sequence (P58681 27-1050): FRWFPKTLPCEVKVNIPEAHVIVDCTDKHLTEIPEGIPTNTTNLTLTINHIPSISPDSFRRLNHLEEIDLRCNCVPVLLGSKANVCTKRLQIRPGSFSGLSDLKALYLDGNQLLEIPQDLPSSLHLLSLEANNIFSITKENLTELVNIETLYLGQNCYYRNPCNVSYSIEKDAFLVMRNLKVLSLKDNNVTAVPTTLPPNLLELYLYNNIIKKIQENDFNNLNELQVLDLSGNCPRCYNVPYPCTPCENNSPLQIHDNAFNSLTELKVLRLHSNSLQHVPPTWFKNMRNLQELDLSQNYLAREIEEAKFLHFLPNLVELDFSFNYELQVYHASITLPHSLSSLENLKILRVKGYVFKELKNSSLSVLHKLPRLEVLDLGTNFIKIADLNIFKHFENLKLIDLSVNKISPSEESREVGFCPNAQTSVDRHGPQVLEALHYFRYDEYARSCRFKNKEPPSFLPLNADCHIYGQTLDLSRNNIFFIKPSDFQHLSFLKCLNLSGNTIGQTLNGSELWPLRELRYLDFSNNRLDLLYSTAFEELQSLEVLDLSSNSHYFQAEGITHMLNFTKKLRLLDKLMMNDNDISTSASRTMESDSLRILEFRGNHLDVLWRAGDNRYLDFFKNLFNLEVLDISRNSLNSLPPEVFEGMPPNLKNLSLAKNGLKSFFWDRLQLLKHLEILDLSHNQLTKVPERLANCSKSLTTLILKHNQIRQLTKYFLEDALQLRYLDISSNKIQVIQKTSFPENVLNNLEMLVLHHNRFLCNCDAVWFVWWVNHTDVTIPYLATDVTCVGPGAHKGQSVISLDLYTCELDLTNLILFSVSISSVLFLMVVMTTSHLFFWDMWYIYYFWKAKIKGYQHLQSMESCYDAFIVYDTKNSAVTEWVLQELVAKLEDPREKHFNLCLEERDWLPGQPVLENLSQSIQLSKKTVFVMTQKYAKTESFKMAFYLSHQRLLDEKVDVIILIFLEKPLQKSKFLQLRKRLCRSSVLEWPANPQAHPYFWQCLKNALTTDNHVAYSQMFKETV
Protocol: as §1, §2, §3

Row | SMILES | EC50 (human TLR7) [nM] | EC50 (mouse TLR7) [nM]
1 | CCCCCNc1nc(N)nc2ccn(Cc3ccc(CN4CCNCC4)cc3OC)c12 [Compound 1, 5-(2-methoxy-4-(piperazin-1-ylmethyl)benzyl)-N4-pentyl-5H-pyrrolo[3,2-d]pyrimidine-2,4-diamine, reference compound] | 1.9 | 4.6
2 | CCCCCNc1nc(N)nc2ccn(Cc3ccc(CN4CC(NC)C4)cc3OC)c12 [Compound 2, 5-(2-methoxy-4-((3-(methylamino)azetidin-1-yl)methyl)benzyl)-N4-pentyl-5H-pyrrolo[3,2-d]pyrimidine-2,4-diamine] | 1.6 | 10.2
3 | CCCCCNc1nc(N)nc2ccn(Cc3ccc(CN4CC5(CNCCO5)C4)cc3OC)c12 [Compound 10, 5-[[2-methoxy-4-(5-oxa-2,8-diazaspiro[3.5]nonan-2-ylmethyl)phenyl]methyl]-N4-pentyl-pyrrolo[3,2-d]pyrimidine-2,4-diamine] | 1.5 | 3.7
